Residues, ends and D or L forms follow the SMILES beside them. *: point of attachment. Cbz = O=C(OCc1ccccc1)*
Tests used:
[1] = test system: STUD degradation of GFP in Jurkat T cells; test: Inhibitor assay: rescue of GFP fluorescence in Jurkat T cells expressing STUD and GFP target; format: cell-based; details: 5 hours
Description: Using the 2 plasmid system as described above, we lentivirally transduce Jurkat T cells. 72 hours after removal of lentivirus, we treat these Jurkat T cells and an untransduced control cell line with either 5 μM of the proteasomal inhibitor MG-132, 1 μM of the cullin ring ligase inhibitor MLN4924, 100 nM of the lysosomal inhibitor Bafilomycin Al, or DMSO vehicle control and incubate at 37 C for 5 hours. Using flow cytometry to measure GFP fluorescence following treatment, we observe that GFP fluorescence can indeed be rescued with MG-132 and MLN4924 when cells express both a functional STUD and a GFP target relative to DMSO vehicle control.
(§1) Inhibitor Assays: 100,000 cells were plated in a 96 well round bottom plate with either 5 μM MG-132 (Sigma-Aldrich #M7449-200UL), 1 μM MLN4924(Active Biochem #A-1139), 100 nM Bafilomycin A1(Enzo Life Sciences #BML-CM110-0100), or DMSO vehicle control and incubated at 37 C for 5 hours. After incubation, cells were pelleted by centrifugation at 400×g for 4 minutes. Supernatant was then removed and cells were washed once with 200 μL PBS. Cells were pelleted again (400×g for 4 minutes) and resuspended in flow buffer (PBS+2% FBS) for assay by flow cytometry.

GFP-SZ17 [GFP: P42212] = test: cell-based or functional assay
[2] = test system: CAR construct with SynZIP17 fused to its C-terminus; test: Degradation of CAR-SZ17 fusion in Jurkat cells; format: cell-based; details: degron directly fused to the CAR
Description: Next, the soluble STUD was used to target a membrane protein for degradation. The ability of the STUD to degrade a CAR in Jurkat cells was tested by generating a CAR construct with SynZIP17 fused to its C-terminus. However, while these STUDs worked to some extent, none of them were able to completely knockdown CAR expression (see FIG. 8).
Membrane targeting STUD: Membrane targeting cells were introduced by lentiviral transduction of two plasmids. […] Cells were then analyzed by flow cytometry. […] CAR and SynNotch expression was measured by antibody staining for a peptide tag fused to the extracellular domain of the CAR/SynNotch.

CD19BBz CAR = test: MLN4924 rescue of STUD knockdown of CD19BBz CAR expression in CD8+ primary T cells; format: cell-based, human; details: 1 μM MLN4924, 5 hours, 37 C
Description: Engineered CD8+T cells expressing were cocultured with NALM6 target cells and measured activation of the CAR by quantifying target cell lysis and expression of the T cell activation marker CD25.
as §1

NALM6 target cells = test: MLN dose response: ON switch CAR lysis of NALM6 target cells; format: cell-based, human; details: MLN4924 1 μM to 0.015625 μM, 72 hours, CD8+ T cells with antiCD19BBz CAR-SynZip and memSTUD
Description: CD8+primary human T cells were engineered with an antiCD19BBz CAR fused to a SynZip and a memSTUD that binds the SynZip using the same plasmids outlined in FIG. 14A by lentiviral transduction. As a control, we also lentivirally transduce CD8+primary human T cells with an antiCD19BBz and a SynZip memSTUD which cannot bind the CAR. These engineered cells and an untransduced control were cocultured with NALM6 target cells for 72 hours at 37 C in the presence of MLN4924 ranging from 1 μM to 0.015625 μM and a DMSO vehicle control. After coculture, target cell lysis was assayed by flow cytometry. Specific target cell lysis of each cell line relative to NALM6 cells cultured alone in the same conditions was then calculated.
100 μL containing media containing a 2×concentration of MLN4924 was added to each well of seeded cells. Cells with MLN4924 were incubated at 37 C for 72 hours. DMSO vehicle at the same concentration as the max MLN4924 concentration was added to cells as a control.

Compound: bafilomycin
- GFP fluorescence relative to DMSO vehicle control ([1]; 100 nM Bafilomycin, 37 C): No changes

Compound: SynZIP18(K->R)-5xGS-RRRG (designed binder)
- fold change of median normalized GFP fluorescence, flow cytometry, Jurkat T cells (STUD-induced degradation) (GFP-SZ17 [GFP: P42212]): 42 fold

Compound: RRRG [Bonger degron]
- reduction of CAR expression [2]: over 90%

Compound: CC(C)C[C@@H](C=O)NC(=O)[C@H](CC(C)C)NC(=O)[C@H](CC(C)C)NC(=O)OCc1ccccc1 [MG-132] (Cbz-Leu-Leu-Leu-aldehyde)
- GFP fluorescence relative to DMSO vehicle control ([1]; 5 μM MG-132, 37 C, cells with functional STUD and GFP target): rescued

Compound: NS(=O)(=O)OC[C@@H]1C[C@@H](n2ccc3c(N[C@H]4CCc5ccccc54)ncnc32)C[C@@H]1O [MLN4924]
- GFP fluorescence relative to DMSO vehicle control ([1]; 1 μM MLN4924, 37 C, cells with functional STUD and GFP target): rescued
- CAR expression after cullin inhibitor (CD19BBz CAR): rescue
- specific target cell lysis (NALM6 target cells): dose dependent

Reference: patent US20230302133A1, “TARGETED PROTEIN DEGRADATION IN THERAPEUTIC CELLS” (The Regents of the University of California, priority 2020, published 2023)
